Reference: PMC4861903, “Synthesis of a highly water-soluble acacetin prodrug for treating experimental atrial fibrillation in beagle dogs” (Scientific Reports, 2016)
Values after ≈ are worked out from the molar mass of the structure shown. Read-outs that look alike come from different tables or passages of the source.

Legend:
[1] = Aqueous solubility by HPLC in H2O, 5% glucose and 0.9% NaCl; format: physicochemical
[2] = target: T1, hKv4.3 current (Ito, KCND3) (Homo sapiens, UniProt Q9UK17); test: Whole-cell patch clamp of hKv4.3 current in HEK 293 cells; format: cell-based; conditions: 10 μM, at +50 mV, current peak, n = 5
T1 construct: expressed in transfected cells
T1 sequence (Q9UK17 1-655): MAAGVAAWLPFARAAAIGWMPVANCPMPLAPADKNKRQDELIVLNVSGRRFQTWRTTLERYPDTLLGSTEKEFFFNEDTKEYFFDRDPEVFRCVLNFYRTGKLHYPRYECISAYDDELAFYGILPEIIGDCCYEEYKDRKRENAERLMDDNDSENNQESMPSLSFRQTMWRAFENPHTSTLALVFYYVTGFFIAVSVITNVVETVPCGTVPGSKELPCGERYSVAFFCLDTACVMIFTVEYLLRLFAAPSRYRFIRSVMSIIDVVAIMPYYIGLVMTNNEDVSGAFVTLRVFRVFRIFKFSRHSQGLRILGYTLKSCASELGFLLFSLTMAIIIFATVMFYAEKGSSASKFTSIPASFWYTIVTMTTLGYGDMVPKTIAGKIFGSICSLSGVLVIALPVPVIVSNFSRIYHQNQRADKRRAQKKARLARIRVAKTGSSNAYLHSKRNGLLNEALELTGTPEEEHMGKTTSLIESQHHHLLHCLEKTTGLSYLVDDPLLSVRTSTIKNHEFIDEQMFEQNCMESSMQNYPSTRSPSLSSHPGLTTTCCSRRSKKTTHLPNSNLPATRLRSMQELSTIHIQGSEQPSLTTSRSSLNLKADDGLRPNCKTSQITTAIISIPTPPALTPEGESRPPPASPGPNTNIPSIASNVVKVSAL
Protocol: (§1) Whole-cell currents of hKv1.5 and hKv4.3 were recorded in established HEK 293 cell lines stably expressing hKv1.5 (KCN5A) and hKv4.3 (KCND3) and IKACh was determined in isolated rat atrial myocytes as described previously[12][31][32] and in Supplemental Materials. […]
(§2) Effects of acacetin prodrug on cardiac potassium currents
(§3) Whole-cell currents of hKv1.5 and hKv4.3 were recorded in established HEK 293 cell lines stably expressing hKv1.5 (KCN5A) and hKv4.3 (KCND3).1, 2 The cells were cultured in Dulbecco’s modified eagle’s medium (DMEM, Invitrogen, Hong Kong) supplemented with 10% fetal bovine serum and 400 µg/mL G418. Cells on a coverslip were transferred to an open cell chamber (0.5 ml) mounted on the stage of an inverted microscope and superfused with Tyrode’s solution at 2 mL/min. The whole cell patch-clamp technique was used as described previously.1, 2 The whole-cell membrane currents were measured using an EPC-10 amplifier and Pulse software (Heka Elektronik, Lambrecht, Germany). Borosilicate glass electrodes (1.2-mm OD) were pulled with a Brown/Flaming puller (model P-97, Sutter Instrument, Nato, CA) and had resistances of 1.5~2.5 MΩ when filled with the pipette solution. A 3-M KCl agar bridge was used as the reference electrode. The tip potential was zeroed before the patch pipette contacted the cell. […]

[3] = target: T2, IKACh (acetylcholine-activated K+ current) (Rattus norvegicus, UniProt P48548+P63251); test: Whole-cell IKACh elicited by 5 μM carbachol in rat atrial myocytes; format: cell-based; conditions: 10 μM, at −100 mV, carbachol sensitive current, n = 5
T2 construct: endogenous in cells; host or cells: atrial myocytes dissociated from male Sprague-Dawley rats
T2 sequence (P63251 1-501): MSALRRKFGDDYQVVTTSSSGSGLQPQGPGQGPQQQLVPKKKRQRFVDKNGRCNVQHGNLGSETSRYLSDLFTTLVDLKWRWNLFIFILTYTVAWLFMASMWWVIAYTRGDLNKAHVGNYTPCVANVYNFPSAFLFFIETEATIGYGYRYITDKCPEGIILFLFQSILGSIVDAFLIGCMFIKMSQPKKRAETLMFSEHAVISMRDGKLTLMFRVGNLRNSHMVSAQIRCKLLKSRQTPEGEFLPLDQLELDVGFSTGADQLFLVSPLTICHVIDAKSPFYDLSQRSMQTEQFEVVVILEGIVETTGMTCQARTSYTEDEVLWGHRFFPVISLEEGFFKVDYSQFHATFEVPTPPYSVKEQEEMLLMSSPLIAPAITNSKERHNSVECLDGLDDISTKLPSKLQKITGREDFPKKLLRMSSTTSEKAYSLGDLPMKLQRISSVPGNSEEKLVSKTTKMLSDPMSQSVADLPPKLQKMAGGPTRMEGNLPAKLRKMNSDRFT
T2 sequence (P48548 1-419): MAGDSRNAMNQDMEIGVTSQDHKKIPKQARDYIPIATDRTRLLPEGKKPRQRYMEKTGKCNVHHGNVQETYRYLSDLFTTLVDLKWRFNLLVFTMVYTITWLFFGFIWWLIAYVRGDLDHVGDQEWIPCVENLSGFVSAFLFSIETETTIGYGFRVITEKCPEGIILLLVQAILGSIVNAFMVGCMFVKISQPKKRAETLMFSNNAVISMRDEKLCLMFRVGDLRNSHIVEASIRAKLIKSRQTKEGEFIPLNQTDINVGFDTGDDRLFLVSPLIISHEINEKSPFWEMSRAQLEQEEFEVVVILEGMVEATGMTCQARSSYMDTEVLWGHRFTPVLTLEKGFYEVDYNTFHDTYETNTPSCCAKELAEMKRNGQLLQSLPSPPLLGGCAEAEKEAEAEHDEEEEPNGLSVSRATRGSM
Protocol: as §1
Effects of acacetin prodrug on cardiac potassium currents […]
Cells on a coverslip were transferred to an open cell chamber (0.5 ml) mounted on the stage of an inverted microscope and superfused with Tyrode’s solution at 2 mL/min. The whole cell patch-clamp technique was used as described previously.1, 2 The whole-cell membrane currents were measured using an EPC-10 amplifier and Pulse software (Heka Elektronik, Lambrecht, Germany). Borosilicate glass electrodes (1.2-mm OD) were pulled with a Brown/Flaming puller (model P-97, Sutter Instrument, Nato, CA) and had resistances of 1.5~2.5 MΩ when filled with the pipette solution. A 3-M KCl agar bridge was used as the reference electrode. The tip potential was zeroed before the patch pipette contacted the cell. After a giga-Ohm seal was obtained, the cell membrane was ruptured by applying gentle pressure to establish a whole-cell configuration. […] The liquid junction potential (14.7 mV) calculated with the software Clampex was not corrected in the experiment and data […]
Whole-cell current of IKACh was determined in isolated rat atrial myocytes. […]

[4] = target: T3, hKv1.5 current (IKur, KCN5A) (Homo sapiens, UniProt P22460); test: Whole-cell patch clamp of hKv1.5 current in HEK 293 cells; format: cell-based; conditions: 10 μM, at +50 mV, current at end of the voltage step, n = 5
T3 construct: expressed in transfected cells
T3 sequence (P22460 whole entry): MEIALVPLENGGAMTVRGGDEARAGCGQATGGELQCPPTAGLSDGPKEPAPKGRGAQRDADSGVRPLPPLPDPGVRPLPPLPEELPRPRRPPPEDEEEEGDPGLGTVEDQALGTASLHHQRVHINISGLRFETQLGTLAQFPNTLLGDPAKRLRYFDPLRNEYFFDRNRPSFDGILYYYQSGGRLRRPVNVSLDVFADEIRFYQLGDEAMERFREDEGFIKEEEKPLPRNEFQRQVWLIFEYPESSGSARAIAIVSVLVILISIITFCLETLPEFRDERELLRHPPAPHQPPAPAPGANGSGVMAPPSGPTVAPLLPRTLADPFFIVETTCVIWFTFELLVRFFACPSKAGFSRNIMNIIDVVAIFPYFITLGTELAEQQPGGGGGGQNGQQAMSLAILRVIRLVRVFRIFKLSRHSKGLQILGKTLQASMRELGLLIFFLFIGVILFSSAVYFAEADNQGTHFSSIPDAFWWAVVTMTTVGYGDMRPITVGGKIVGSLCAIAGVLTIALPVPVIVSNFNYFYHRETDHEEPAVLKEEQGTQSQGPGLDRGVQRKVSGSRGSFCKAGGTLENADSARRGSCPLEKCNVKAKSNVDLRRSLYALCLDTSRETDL
Protocol: as §1, §2, §3

hERG channels = target: T4, hERG channels (Homo sapiens, UniProt Q12809); conditions: 30 μM; cited from earlier work
T4 construct: expressed in transfected cells; host or cells: HEK 293
T4 sequence (Q12809 whole entry): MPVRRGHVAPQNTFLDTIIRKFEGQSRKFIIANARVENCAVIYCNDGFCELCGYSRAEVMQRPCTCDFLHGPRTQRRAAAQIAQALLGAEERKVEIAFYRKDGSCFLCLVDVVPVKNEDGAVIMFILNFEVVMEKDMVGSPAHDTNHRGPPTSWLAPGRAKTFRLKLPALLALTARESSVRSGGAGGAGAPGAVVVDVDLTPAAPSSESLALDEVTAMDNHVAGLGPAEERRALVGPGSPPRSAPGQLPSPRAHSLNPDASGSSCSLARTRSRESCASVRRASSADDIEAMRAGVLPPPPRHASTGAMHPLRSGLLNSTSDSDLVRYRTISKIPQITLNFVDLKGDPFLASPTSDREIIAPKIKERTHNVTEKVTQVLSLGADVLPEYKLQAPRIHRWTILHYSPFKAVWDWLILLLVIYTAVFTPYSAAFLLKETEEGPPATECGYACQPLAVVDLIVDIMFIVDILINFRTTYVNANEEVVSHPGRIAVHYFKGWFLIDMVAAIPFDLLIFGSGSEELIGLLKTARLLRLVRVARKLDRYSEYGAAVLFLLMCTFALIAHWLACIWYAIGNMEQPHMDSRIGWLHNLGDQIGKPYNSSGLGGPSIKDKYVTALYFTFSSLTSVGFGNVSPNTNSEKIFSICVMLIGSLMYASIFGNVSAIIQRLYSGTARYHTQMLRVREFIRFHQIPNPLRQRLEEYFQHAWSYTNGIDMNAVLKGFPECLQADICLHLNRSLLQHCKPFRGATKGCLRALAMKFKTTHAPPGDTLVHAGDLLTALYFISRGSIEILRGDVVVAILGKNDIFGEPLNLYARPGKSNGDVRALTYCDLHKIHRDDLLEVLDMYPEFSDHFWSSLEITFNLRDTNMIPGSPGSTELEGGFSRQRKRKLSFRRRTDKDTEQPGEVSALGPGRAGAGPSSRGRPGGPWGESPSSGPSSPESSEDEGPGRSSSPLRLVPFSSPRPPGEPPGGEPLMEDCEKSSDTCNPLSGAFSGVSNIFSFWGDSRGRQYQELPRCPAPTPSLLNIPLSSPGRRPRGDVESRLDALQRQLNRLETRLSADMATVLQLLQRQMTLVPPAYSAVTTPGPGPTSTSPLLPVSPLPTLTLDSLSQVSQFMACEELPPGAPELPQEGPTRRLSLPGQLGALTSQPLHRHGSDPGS

solubility [1]	solubility ([1]; 24 °C, saline or isotonic)	solubility ([1]; 24 °C, water)	decrease of hKv4.3 current [2]	decrease of IK.ACh [3]	decrease of hKv1.5 current [4]	Structure (SMILES)	inhibition of hERG current (hERG channels)	solubility ([1]; 24 °C, saline or isotonic, in 0.9% NaCl, room temperature (23–25 °C), n = 3, read-out: maximum solubility)	solubility ([1]; 24 °C, saline or isotonic, in 5% glucose, room temperature (23–25 °C), n = 3, read-out: maximum solubility)	solubility ([1]; 24 °C, water, in H2O, room temperature (23–25 °C), n = 3, read-out: maximum solubility)	increase of aqueous solubility vs acacetin ([1]; in 0.9% NaCl)	increase of aqueous solubility vs acacetin ([1]; in 5% glucose)	increase of aqueous solubility vs acacetin ([1]; in H2O)
0.195 ± 0.0135 µg/mL (≈ 0.686 µM)	0.312 ± 0.0121 µg/mL (≈ 1.1 µM)	0.0644 ± 0.0109 µg/mL (≈ 0.227 µM)	69.3 ± 5.1%	66.5 ± 3.1%	79.7 ± 4.1%	COc1ccc(-c2cc(=O)c3c(O)cc(O)cc3o2)cc1 [acacetin]	~ 50%	–	–	–	–	–	–
–	–	–	–	–	–	COc1ccc(-c2cc(=O)c3c(O)cc(OP(=O)(O)O)cc3o2)cc1 [phosphate ester of acacetin]	–	4.3 ± 0.1 µg/mL	2.7 ± 0.1 µg/mL	2.5 ± 0.1 µg/mL	21 folds	7.6 folds	37.8 folds
